# From publication PMC13083723 (Patterns, 2026)
# Values joined by “and” are separate entries in the source; they are usually repeats but may differ in a detail not shown here. Identical values can stand only once. Like-named read-outs stand apart in the source and are kept apart here.
# Assays:
# [1] = test system: Vero-E6 cells; assay: cells; format: cell-based; conditions: for activation at 10 µM / activation at 5 µM / activation at 20 µM: Vero C1008, 24 h; for activation at 5 µM: read-out: PLD Effect in % 5 µM; for activation at 20 µM: read-out: PLD Effect in % 20 µM
# [2] = test system: A549 cells; assay: PLD assay of predicted ENZO library compounds in A549 cells; conditions: Homo sapiens, A549, read-out: PLD effect % in A549
# [3] = test system: CaCo2 cells; conditions: 10 μM in-assay concentration; ENZO library; amiodarone as positive control
# [4] = test system: SARS-CoV-2; conditions: cited from earlier work; for CaCo2 CPE inhibition %: Caco-2, 20 µM
# [5] = test system: SARS-CoV-2; conditions: cited from earlier work; for Vero-E6 CPE inhibition %: 10 µM; for EC50: read-out: Vero-E6 EC50
# [6] = cited from earlier work
# [7] = test system: A549-ACE2 cells; assay: cells; format: cell-based; conditions: A549-ACE2, 24 h, read-out: PLD_Effect(%) A549-ACE2
# [8] = Chlorocebus sabaeus, read-out: PLD effect % in Vero-E6
# [9] = Chlorocebus sabaeus, read-out: PLD_Effect(%) VERO-E6
# [10] = Chlorocebus sabaeus, read-out: PLD Effect in % 10 µM
# [11] = Chlorocebus sabaeus, Vero C1008, read-out: PLD EC50
# [12] = value is the negative log10 of mol/L
# [13] = Chlorocebus sabaeus, Vero C1008, read-out: PLD EC50 µM
compound,measurement,setting,value
OCCN1CCN(CCCN2c3ccccc3Sc3ccc(C(F)(F)F)cc32)CC1 [Fluphenazine],activation at 10 µM,[1]; [8],90.3%
same,activation at 10 µM,[2],77.4%
same,PLD effect % in CaCo2,[3],95.4%
"COCC(=O)O[C@]1(CCN(C)CCCc2nc3ccccc3[nH]2)CCc2cc(F)ccc2[C@@H]1C(C)C [mibefradil, reference compound]",activation at 10 µM,[1]; [9],88.2%
same,activation at 5 µM,[1]; Chlorocebus sabaeus,62%
same,activation at 10 µM,[1]; [10],80.5%
same,activation at 20 µM,[1]; Chlorocebus sabaeus,2.41%
same,EC50,[1]; [11],2.45 µM
same,CaCo2 CPE inhibition %,[4],52.45%
same,Vero-E6 CPE inhibition %,[5],-0.26
same,"pchembl_value (type AC50), Dopamine D3 receptor",[6],6.08
same,"pchembl_value (type AC50), Mu opioid receptor",[6],6.01
same,"pchembl_value (type AC50), Serotonin 1a (5-HT1a) receptor",[6],6.13
same,AC50,"[6]; read-out: AC50 (value), Dopamine D3 receptor",825 nM
same,AC50,"[6]; read-out: AC50 (value), Mu opioid receptor",979 nM
same,AC50,"[6]; read-out: AC50 (value), Serotonin 1a (5-HT1a) receptor",746 nM
same,IC50,"[6]; read-out: IC50 (value), Voltage-gated L-type calcium channel alpha-1C subunit",250 nM
same,"pchembl_value (type IC50), Voltage-gated L-type calcium channel alpha-1C subunit",[6]; [12],6.60
same,"pchembl_value (type IC50), Voltage-gated T-type calcium channel alpha-1G subunit",[6]; [12],6.00 and 7.19
same,"pchembl_value (type IC50), Voltage-gated T-type calcium channel alpha-1H subunit",[6]; [12],6.00 and 6.89
same,"pchembl_value (type IC50), Voltage-gated T-type calcium channel alpha-1I subunit",[6]; [12],6.90 and 6.00 and 6.89
same,activation at 10 µM,[7],97.4%
CN(C)CCCN1c2ccccc2Sc2ccc(Cl)cc21 [Chlorpromazine],activation at 10 µM,[1]; [8],116%
same,activation at 10 µM,[2],80.8%
same,PLD effect % in CaCo2,[3],67.1%
C[C@@H](NCCCc1cccc(C(F)(F)F)c1)c1cccc2ccccc12 [Cinacalcet],activation at 10 µM,[1]; [8],43%
same,activation at 10 µM,[2],105%
same,PLD effect % in CaCo2,[3],20.9%
CNCC[C@H](Oc1cccc2ccccc12)c1cccs1 [Duloxetine],activation at 10 µM,[1]; [8],95.9%
same,activation at 10 µM,[2],108%
same,PLD effect % in CaCo2,[3],84.9%
CSc1ccc2c(c1)N(CCC1CCCCN1C)c1ccccc1S2 (stereo not drawn) [Thioridazine],activation at 10 µM,[1]; [8],44.7%
same,activation at 10 µM,[2],33.5%
same,PLD effect % in CaCo2,[3],22.7%
"COc1cccc([C@@H](C)NCCCc2ccccc2Cl)c1 [tecalcet, reference compound]",activation at 10 µM,[1]; [9],70.1%
same,activation at 5 µM,[1]; Chlorocebus sabaeus,59.6%
same,activation at 10 µM,[1]; [10],74.3%
same,activation at 20 µM,[1]; Chlorocebus sabaeus,102%
same,EC50,[1]; [13],2.6 µM
same,CaCo2 CPE inhibition %,[4],78.10%
same,Vero-E6 CPE inhibition %,[5],-0.13%
same,activation at 10 µM,[7],93%
CNCC[C@@H](Oc1ccccc1C)c1ccccc1 [Atomoxetine],activation at 10 µM,[1]; [8],27.7%
same,activation at 10 µM,[2],70.9%
same,PLD effect % in CaCo2,[3],0.7%
"NCCC(Oc1ccc(C(F)(F)F)cc1)c1ccccc1 (stereo not drawn) [norfluoxetine, reference compound]",activation at 10 µM,[1]; [9],62.2%
same,activation at 5 µM,[1]; Chlorocebus sabaeus,92.1%
same,activation at 10 µM,[1]; [10],112%
same,activation at 20 µM,[1]; Chlorocebus sabaeus,198%
same,EC50,[1]; [13],1.96 µM
same,CaCo2 CPE inhibition %,[4],94.99%
same,Vero-E6 CPE inhibition %,[5],-0.11%
same,activation at 10 µM,[7],108%
CC(CN1c2ccccc2Sc2ccccc21)N(C)C (stereo not drawn) [Promethazine],activation at 10 µM,[1]; [8],90.7%
same,activation at 10 µM,[2],81.9%
same,PLD effect % in CaCo2,[3],37.8%
CN1CCCC(n2nc(Cc3ccc(Cl)cc3)c3ccccc3c2=O)CC1 (stereo not drawn) [Azelastine],activation at 10 µM,[1]; [8],81.7%
same,activation at 10 µM,[2],89.8%
same,PLD effect % in CaCo2,[3],36.5%
CN(C)CCCN1c2ccccc2CCc2ccc(Cl)cc21 [Clomipramine],activation at 10 µM,[1]; [8],70.9%
same,activation at 10 µM,[2],66.2%
same,PLD effect % in CaCo2,[3],74.6%
"CNCCC(Oc1ccc(C(F)(F)F)cc1)c1ccccc1 (stereo not drawn) [Fluoxetine, reference compound]",activation at 10 µM,[1]; [8],111%
same,activation at 10 µM,[2],108%
"c1cc2c(cc1C1CCCCC1)c1c3n2CCNC3CCC1 (stereo not drawn) [tetrindole, reference compound]",PLD Effect in % 5 µM,[1],133.51%
same,PLD Effect in % 10 µM,[1],133.70%
same,PLD Effect in % 20 µM,[1],-33.00%
same,EC50,[1]; read-out: PLD EC50,9.59 µM
same,CaCo2 CPE inhibition %,[4],75.19%
same,Vero-E6 CPE inhibition %,[5],-0.34%
"CN(C)C/C=C/C(=O)Nc1cc2c(Nc3ccc(F)c(Cl)c3)ncnc2cc1O[C@H]1CCOC1 [Afatinib, reference compound]",activation at 5 µM,[1]; Chlorocebus sabaeus,129%
same,activation at 10 µM,[1]; [10],249%
same,activation at 20 µM,[1]; Chlorocebus sabaeus,146%
same,CaCo2 CPE inhibition %,[4],60.16%
same,Vero-E6 CPE inhibition %,[5],-0.39%
"CNCc1ccc(C)c(NC(=O)c2ccc(Nc3nc(-c4ccccc4)c4ccccc4n3)cc2)c1 [BMS-833923 (XL139), reference compound]",activation at 5 µM,[1]; Chlorocebus sabaeus,72.2%
same,activation at 10 µM,[1]; [10],59.1%
same,activation at 20 µM,[1]; Chlorocebus sabaeus,-39.6%
same,EC50,[1]; [11],1.11 µM
same,CaCo2 CPE inhibition %,[4],68.77%
same,Vero-E6 CPE inhibition %,[5],-0.37
CN1CCC[C@@H]1CCO[C@](C)(c1ccccc1)c1ccc(Cl)cc1 [Clemastine],activation at 10 µM,[1]; [8],30.1%
same,activation at 10 µM,[2],50.4%
same,PLD effect % in CaCo2,[3],6.9%
"Cc1ccc(C(=O)N(CCCN)[C@@H](c2oc3cc(Cl)ccc3c(=O)c2Cc2ccccc2)C(C)C)cc1 [SB-743921, reference compound]",activation at 5 µM,[1]; Chlorocebus sabaeus,172%
same,activation at 10 µM,[1]; [10],224%
same,activation at 20 µM,[1]; Chlorocebus sabaeus,-43.6%
same,EC50,[1]; [13],2.49 µM
same,CaCo2 CPE inhibition %,[4],78.89%
same,Vero-E6 CPE inhibition %,[5],-0.36%
CN1CCN(CCCN2c3ccccc3Sc3ccc(C(F)(F)F)cc32)CC1 [Trifluoperazine],activation at 10 µM,[1]; [8],102%
same,activation at 10 µM,[2],97.8%
same,PLD effect % in CaCo2,[3],63.2%
"CCN(CC)CCCCNc1ncc2cc(-c3c(Cl)cccc3Cl)c(NC(=O)NC(C)(C)C)nc2n1 [PD-161570, reference compound]",PLD Effect in % 5 µM,[1],163.59%
same,PLD Effect in % 10 µM,[1],118.17%
same,PLD Effect in % 20 µM,[1],36.18%
same,EC50,[1]; read-out: PLD EC50,0.63 µM
same,CaCo2 CPE inhibition %,[4],108.10%
same,Vero-E6 CPE inhibition %,[5],12.35%
same,EC50,[5],145000 nM
"Cc1cc(Nc2ncc(Cl)c(Nc3ccccc3S(=O)(=O)C(C)C)n2)c(OC(C)C)cc1C1CCNCC1 [Ceritinib, reference compound]",activation at 5 µM,[1]; Chlorocebus sabaeus,91.9%
same,activation at 10 µM,[1]; [10],116%
same,activation at 20 µM,[1]; Chlorocebus sabaeus,137%
same,EC50,[1]; [13],2.18 µM
same,CaCo2 CPE inhibition %,[4],59.98%
same,Vero-E6 CPE inhibition %,[5],-0.35%
"CN1CCN(c2ccc(C(=O)Nc3n[nH]c4ccc(Cc5cc(F)cc(F)c5)cc34)c(NC3CCOCC3)c2)CC1 [entrectinib (RXDX-101), entrectinib, reference compound]",PLD EC50 µM,[1],toxic
same,PLD Effect in % 5 µM,[1],toxic
same,PLD Effect in % 10 µM,[1],toxic
same,PLD Effect in % 20 µM,[1],toxic
same,CaCo2 CPE inhibition %,[4],toxic
same,CaCo2 EC50 µM,[4],toxic
same,Vero-E6 CPE inhibition %,[5],toxic
same,Vero-E6 EC50 µM,[5],toxic
amodiaquine dihydrochloride [reference compound],PLD Effect in % 5 µM,[1],88.75%
same,PLD Effect in % 10 µM,[1],101.86%
same,PLD Effect in % 20 µM,[1],186.68%
same,CaCo2 CPE inhibition %,[4],78.80%
same,Vero-E6 CPE inhibition %,[5],20.16%
same,EC50,[5],21500 nM
"CCCCN1[C@@H]2CC[C@H]1C[C@@H](OC(c1ccc(F)cc1)c1ccc(F)cc1)C2 [JHW-007, reference compound]",PLD Effect in % 5 µM,[1],115.34%
same,PLD Effect in % 10 µM,[1],112.39%
same,PLD Effect in % 20 µM,[1],86.69%
same,EC50,[1]; read-out: PLD EC50,0.71 µM
same,CaCo2 CPE inhibition %,[4],93.14%
same,Vero-E6 CPE inhibition %,[5],-0.32%
"c1ccc(CNc2nc(NCc3ccccc3)c3ccccc3n2)cc1 [DBeQ, reference compound]",PLD Effect in % 5 µM,[1],73.45%
same,PLD Effect in % 10 µM,[1],88.88%
same,PLD Effect in % 20 µM,[1],-36.11%
same,EC50,[1]; read-out: PLD EC50,1.19 µM
same,CaCo2 CPE inhibition %,[4],100.89%
same,Vero-E6 CPE inhibition %,[5],-0.3
